Laboratory results taken from patent publication US7304090B2, “Inhibition of the cystic fibrosis transmembrane conductance regulator chloride channel” (The University of Bristol, priority 2000, dated 2007).

Tests used:
[1] = test system: Type I Madin-Darby canine kidney (MDCK) cells; test: Cyst growth of MDCK cells in collagen gels with cAMP agonists; format: cell-based; settings: for cyst volume: day 21 vs day 12; for size of cysts (phase-contrast): days 12 to 21
Experimental: (§1) For cyst growth and cell proliferation experiments, we used Type I Madin-Darby canine kidney (MDCK) cells. We chose Type I MDCK cells because they form cysts when grown in collagen gels in the presence of cAMP agonists (26) and because they express the CFTR Cl^− channel (27). MDCK cells were cultured in MDCK media (a 1:1 mixture of Dulbecco's Modified Eagle Medium (DMEM) and Ham's F-12 nutrient medium supplemented with 100 U ml^−1 penicillin, and 100 μg ml^−1 streptomycin and either 10% fetal bovine serum (FBS; cyst growth) or 5% FBS and 1% insulin-transferrin-selenium-X (ITS-X) supplement (cell proliferation); all from Life Technologies Ltd, Paisley, UK) at 37° C. in a humidified atmosphere of 5% CO2.
To grow cysts, MDCK cells were cultured in collagen gels using a modification of the method of Grantham et al. (26). Cells were trypsinized with 0.25% (wt/vol) trypsin for 30 minutes at 37° C., diluted with MDCK media containing 10% FBS to form a suspension of between 1-3×10^4 cells ml^−1, and aliquoted into individual wells of a 24-well plate (0.1 ml per well). Each well contained 0.4 ml of ice-cold Vitrogen (3.0 mg ml^−1 collagen; Cohesion Technologies Inc., Palo Alto, USA) supplemented with 10% (vol/vol) 10× minimum essential medium, 10 mM N-[2-hydroxyethyl]piperazine-N′-[2-ethanesulphonic acid] (Hepes), 27 mM NaHCO3, 100 U ml^−1 penicillin, and 100 μg ml^−1 streptomycin, and adjusted to pH 7.4 with NaOH. The 24-well plate was gently agitated to distribute cells throughout the Vitrogen and incubated in a water bath at 37° C. for 90 minutes to promote gelation of the Vitrogen.
After gelation, 1.5 ml MDCK media containing 10% FBS was added to each well of the 24-well plate. To promote cyst growth, we added cAMP agonists (forskolin (10 μM), 3-isobutyl-1-methylxanthine (IBMX; 100 μM), and 8-(4-chlorophenylthio) adenosine 3′:5′-cyclic monophosphate (CPT-cAMP; 500 μM)) to the MDCK media. Plates were maintained at 37° C. in a humidified atmosphere of 5% CO2 and the MDCK media containing cAMP agonists changed every three days.
Twelve days after seeding collagen gels with MDCK cells, cysts were readily detected at ×1000 magnification using an inverted microscope with phase contrast optics (Leica, model DMIL, Milton Keynes, UK). To test the effect of CFTR modulators on cyst growth, drugs were added to MDCK media in the continued presence of cAMP agonists. MDCK media containing cAMP agonists and CFTR modulators was changed every 3 days for a total period of 9 days. Photographs of individual cysts were taken before the addition of CFTR modulators and at three day intervals over the duration of the experiment. To identify individual cysts, each cyst was assigned a unique reference number using a grid placed below the 24-well plate.
The diameter of cysts was measured directly from photographs of cysts using images that had been magnified by identical amounts. By assuming that cysts are spherical in shape, we calculated cyst volume ( 4/3·π·r^3).

Type I MDCK cells = test: Proliferation of MDCK cells (cell counting); format: cell-based, canine
Experimental: as §1
To test the effect of CFTR modulators on the proliferation of MDCK cells, we used Type I MDCK cells grown in media containing 5% FBS and 1% ITS-X supplement. On day −1, MDCK cells were seeded at 7.5×10^4 cells ml^−1 in 35 mm dishes containing MDCK media with 1% FBS and 1% ITS-X supplement. On day 0, the concentration of FBS was reduced further to 0.01% and CFTR modulators added to the MDCK media. MDCK media containing CFTR modulators was changed every 2 days for a total period of 6 days. To determine the number of cells per 35 mm dish, Type I MDCK cells were harvested using trypsin (0.25% wt/vol), centrifuged at 1200 rpm for 5 min and resuspended in 1 ml of MDCK media before counting using a haemocytometer.

wild-type human CFTR = molecular target: T1, wild-type human CFTR (Homo sapiens, UniProt P13569); test: CFTR Cl− channels recorded in excised inside-out membrane patches from C127 cells (patch-clamp); format: biochemical
T1 construct: expressed in transfected cells
Experimental: For electrophysiological experiments, we used mouse mammary epithelial cells (C127 cells) stably expressing wild-type human CFTR (12). C127 cells expressing wild-type CFTR were cultured as previously described (10). Cells were seeded onto glass coverslips and used within 48 h.
The established sign convention was used throughout; currents produced by positive charge moving from intra- to extracellular solutions (anions moving in the opposite direction) are shown as positive currents.
[…] […] All experiments were conducted at 37° C.
PKA was maintained in the intracellular solution for the duration of experiments. Unless otherwise stated, voltage was −50 mV.
In time course studies, each point is the average current for a 4 s period with data points collected continuously; no data were collected while solutions were changed. Average current (I) for a specific intervention was determined as the average of all the data points collected during the intervention. […] Mean data were fitted to a linear form of equation (1) using linear least-squares regression to yield Ki and n values.
To measure single-channel current amplitude (i), Gaussian distributions were fitted to current amplitude histograms. For open probability (Po) and kinetic analyses, lists of open and closed times were created using a half-amplitude crossing criterion for event detection. Transitions <1 ms in duration were excluded from the analyses. Po was calculated using the equation: Po=(T1+T2+ . . . +TN)/(NTtot), (2) where N is the number of channels; Ttot is the total time analysed, and T1 is the time that one or more channels are open, T2 is the time two or more channels are open and so on. Only membrane patches that contained a single active channel were used for single-channel kinetic analyses.
To investigate whether inhibition of CFTR by fluorescein derivatives was voltage dependent, we used voltage ramp protocols. Macroscopic current-voltage (I-V) relationships were obtained in the absence and presence of fluorescein derivatives by averaging currents generated by 15-30 ramps of voltage each of 2 s duration; holding voltage was −50 mV. Basal currents recorded in the absence of PKA and ATP were subtracted from those recorded in the absence and presence of fluorescein derivatives to determine the effect of these agents on CFTR Cl^− currents.

T1 sequence (P13569 whole entry): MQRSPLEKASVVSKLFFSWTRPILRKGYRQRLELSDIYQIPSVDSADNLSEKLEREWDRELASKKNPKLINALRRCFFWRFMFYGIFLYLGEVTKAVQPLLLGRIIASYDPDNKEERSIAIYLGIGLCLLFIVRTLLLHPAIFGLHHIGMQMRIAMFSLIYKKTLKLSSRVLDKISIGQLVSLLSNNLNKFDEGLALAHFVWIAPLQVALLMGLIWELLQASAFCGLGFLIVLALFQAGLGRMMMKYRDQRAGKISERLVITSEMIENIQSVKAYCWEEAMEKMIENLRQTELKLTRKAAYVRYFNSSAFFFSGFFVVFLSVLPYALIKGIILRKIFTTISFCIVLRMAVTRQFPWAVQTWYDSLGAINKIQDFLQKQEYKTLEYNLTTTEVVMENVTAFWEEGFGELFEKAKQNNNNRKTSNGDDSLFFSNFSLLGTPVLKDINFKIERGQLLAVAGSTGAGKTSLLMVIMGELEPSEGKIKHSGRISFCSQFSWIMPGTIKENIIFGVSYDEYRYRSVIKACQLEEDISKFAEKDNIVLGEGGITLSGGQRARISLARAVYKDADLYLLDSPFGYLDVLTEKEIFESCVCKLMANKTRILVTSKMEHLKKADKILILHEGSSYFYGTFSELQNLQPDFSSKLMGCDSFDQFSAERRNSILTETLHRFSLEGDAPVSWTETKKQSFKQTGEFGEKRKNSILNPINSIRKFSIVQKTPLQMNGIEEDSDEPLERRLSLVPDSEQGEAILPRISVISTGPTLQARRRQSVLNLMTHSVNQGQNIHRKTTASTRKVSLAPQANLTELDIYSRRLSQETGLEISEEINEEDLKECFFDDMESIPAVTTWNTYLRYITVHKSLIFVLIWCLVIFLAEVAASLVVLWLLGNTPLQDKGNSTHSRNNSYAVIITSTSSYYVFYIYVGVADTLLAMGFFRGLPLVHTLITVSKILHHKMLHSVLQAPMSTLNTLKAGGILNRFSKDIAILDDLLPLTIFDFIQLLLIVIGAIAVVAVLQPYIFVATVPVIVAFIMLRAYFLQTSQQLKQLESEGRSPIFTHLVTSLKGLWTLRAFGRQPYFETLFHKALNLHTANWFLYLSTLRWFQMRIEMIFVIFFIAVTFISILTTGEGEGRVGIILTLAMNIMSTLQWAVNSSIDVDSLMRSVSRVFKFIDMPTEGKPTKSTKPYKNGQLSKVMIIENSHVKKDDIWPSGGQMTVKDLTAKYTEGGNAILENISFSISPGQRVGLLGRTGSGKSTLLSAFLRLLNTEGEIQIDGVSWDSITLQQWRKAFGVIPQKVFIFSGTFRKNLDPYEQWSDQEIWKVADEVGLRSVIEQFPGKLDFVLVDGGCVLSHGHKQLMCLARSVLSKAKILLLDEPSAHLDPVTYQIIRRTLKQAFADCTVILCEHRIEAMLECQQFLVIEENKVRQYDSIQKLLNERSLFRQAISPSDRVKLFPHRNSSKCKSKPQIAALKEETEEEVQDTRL

## O=[N+]([O-])c1ccc(C=Cc2ccc([N+](=O)[O-])cc2S(=O)(=O)O)c(S(=O)(=O)O)c1 [DIDS, 4,4′-dinitrostilbene-2,2′-disulphonic acid]
[1]; 200 μM, P>0.5
  cyst volume: exception
[1]; 200 μM
  size of cysts (phase-contrast): without effect on cyst growth
Type I MDCK cells; 200 μM
  cell growth (number of cells), day 0 to 6: exception
wild-type human CFTR; 200 μM, added to the intracellular side
  effect on activity of CFTR: potently inhibited

## O=C(O)c1cc([N+](=O)[O-])ccc1NCCCc1ccccc1 [NPPB, 5-nitro-2-(3-phenylpropylamino)-benzoic acid]
[1]
  rank order of decrease of cyst volume: glibenclamide (100 μM)≧ouabain (1 μM)≧NPPB (400 μM)≧genistein (100 μM)>bumetanide
[1]; 400 μM
  cyst volume: decreased cyst volume
  size of cysts (phase-contrast): visible decrease in the size of cysts
Type I MDCK cells
  inhibition of cell growth in the presence of cAMP agonists: unaffected by cAMP agonists
  rank order of prevention of cell growth: ouabain (1 μM)=phloxine B (40 μM)=genistein (100 μM)=NPPB (400 μM)>glibenclamide (100 μM)
Type I MDCK cells; 400 μM
  cell growth (number of cells), day 0 to 6: prevented cell growth

## O=C1OC2(c3cc(I)c(O)c(I)c3Oc3c2cc(I)c(O)c3I)c2c(Cl)c(Cl)c(Cl)c(Cl)c21 [bengal rose B]
Type I MDCK cells; 5 μM
  cell growth (number of cells), day 0 to 6: inhibited the proliferation
wild-type human CFTR
  potency of CFTR inhibition compared with glibenclamide: potency greater than or equal to that of glibenclamide
  reversibility of CFTR inhibition: irreversible
wild-type human CFTR; 10 μM
  single-channel activity (i and/or Po): never able to resolve discrete channel openings
wild-type human CFTR; concentration-response, FIG. 3
  rank order of potency for CFTR inhibition: bengal rose B>phloxine B>eosin Y≧tetrachlorofluorescein>>fluorescein
  stimulation of CFTR channel activity: stimulated channel activity

## CCCCNc1cc(C(=O)O)cc(S(N)(=O)=O)c1Oc1ccccc1 [bumetanide]
[1]
  rank order of decrease of cyst volume: glibenclamide (100 μM)≧ouabain (1 μM)≧NPPB (400 μM)≧genistein (100 μM)>bumetanide
[1]; 100 μM
  cyst volume: decreased cyst volume
Type I MDCK cells; 100 μM
  cell growth (number of cells), day 0 to 6: exception

## O=C1OC2(c3ccc(O)cc3Oc3cc(O)ccc32)c2ccccc21 [fluorescein]
wild-type human CFTR; concentration-response, FIG. 3
  rank order of potency for CFTR inhibition: bengal rose B>phloxine B>eosin Y≧tetrachlorofluorescein>>fluorescein

## O=c1c(-c2ccc(O)cc2)coc2cc(O)cc(O)c12 [genistein]
[1]
  rank order of decrease of cyst volume: glibenclamide (100 μM)≧ouabain (1 μM)≧NPPB (400 μM)≧genistein (100 μM)>bumetanide
[1]; 100 μM
  cyst volume: decreased cyst volume
Type I MDCK cells
  inhibition of cell growth in the presence of cAMP agonists: unaffected by cAMP agonists
  rank order of prevention of cell growth: ouabain (1 μM)=phloxine B (40 μM)=genistein (100 μM)=NPPB (400 μM)>glibenclamide (100 μM)
Type I MDCK cells; 100 μM
  cell growth (number of cells), day 0 to 6: prevented cell growth

## COc1ccc(Cl)cc1C(=O)NCCc1ccc(S(=O)(=O)NC(=O)NC2CCCCC2)cc1 [glibenclamide]
[1]
  rank order of decrease of cyst volume: glibenclamide (100 μM)≧ouabain (1 μM)≧NPPB (400 μM)≧genistein (100 μM)>bumetanide
[1]; 100 μM
  cyst volume: decreased cyst volume
  size of cysts (phase-contrast): visible decrease in the size of cysts
Type I MDCK cells
  inhibition of cell growth in the presence of cAMP agonists: unaffected by cAMP agonists
  rank order of prevention of cell growth: ouabain (1 μM)=phloxine B (40 μM)=genistein (100 μM)=NPPB (400 μM)>glibenclamide (100 μM)
Type I MDCK cells; 100 μM
  cell growth (number of cells), day 0 to 6: prevented cell growth
wild-type human CFTR; glibenclamide 50 μM
  effect on channel block by phloxine B (20 μM): potentiated channel block

## O=C(O)c1c(Cl)c(Cl)c(Cl)c(Cl)c1-c1c2ccc(=O)cc-2oc2cc(O)ccc12 [tetrachlorofluorescein]
Type I MDCK cells; 200 μM
  cell growth (number of cells), day 0 to 6: inhibited the proliferation
wild-type human CFTR
  potency of CFTR inhibition compared with glibenclamide: less potently than glibenclamide
  reversibility of CFTR inhibition: partially reversible
wild-type human CFTR; 100 μM
  open probability (Po): decreasing
  single-channel current amplitude (i): decreasing
wild-type human CFTR; 100 μM, symmetrical 147 mM Cl−
  channel block at positive voltages: relieved
  effect on CFTR Cl− currents at negative voltages: decreased CFTR Cl^− currents
wild-type human CFTR; ATP 0.3 mM, PKA 75 nM, −50 mV
  n (slope factor, Hill coefficient) of CFTR inhibition: 0.7
wild-type human CFTR; ATP 0.3 mM, PKA 75 nM, −50 mV, 37° C., drug in intracellular solution, read-out: Ki (drug concentration causing half-maximal inhibition of CFTR Cl− current, Hill plot)
  Ki: 58 µM
wild-type human CFTR; concentration-response, FIG. 3
  rank order of potency for CFTR inhibition: bengal rose B>phloxine B>eosin Y≧tetrachlorofluorescein>>fluorescein
wild-type human CFTR; voltage ramp ±100 mV, symmetrical 147 mM Cl−, ATP 1 mM
  voltage-dependence of CFTR inhibition: voltage-dependent
